In patent publication US20230157288A1, “PEST CONTROL METHOD, PEST CONTROL AGENT COMPOSITION, AND PEST CONTROL AGENT SET” (priority 2020, published 2023):
Where a name gives a salt, the structure may show the parent alone. Read-outs that look alike come from different tables or passages of the source.

Key:
Assay type in all cases: in vivo
Plutella xylostella = test: Test for confirming effect on Plutella xylostella (cabbage leaf immersion, insecticidal rate); settings: single chemical
Protocol: Test for Confirming Effect on Plutella xylostella
A flowable agent containing the compound A was diluted with water containing RABIDEN® 3S diluted 5000 times to prepare chemical solutions A containing the compound A at twice concentrations described in Table 3.
A preparation containing the compound B or a flowable agent containing the compound B was diluted with water containing RABIDEN 3S diluted 5000 times to prepare chemical solutions B containing the compound B at twice concentrations described in Table 3, respectively.
Cabbage leaves were immersed in a mixed solution obtained by mixing the chemical solution A and the chemical solution B in an equivalent amount for 30 seconds, and these cabbage leaves were placed in a petri dish, and five second-instar Plutella xylostella larvae were released (AB mixture application plot).
(§1) The chemical solution A and the chemical solution B were twice diluted with the water containing RABIDEN 3S diluted 5000 times to obtain a chemical solution A′ and a chemical solution B′.
Cabbage leaves were immersed in the chemical solution A′ for 30 seconds, and these cabbage leaves were placed in another petri dish, and five second-instar Plutella xylostella larvae were released (A single application plot). Cabbage leaves were immersed in the chemical solution B′ for 30 seconds, and these cabbage leaves were placed in another petri dish, and five second-instar Plutella xylostella larvae were released (B single application plot).
Then, these petri dishes were placed in a thermostatic chamber at a temperature of 25° C. and a humidity of 60%. Three days after the larva release, viability determination was performed, and the insecticidal rate was calculated by the following equation. The test was repeated twice.
(§2) Insecticidal rate (%)=(the number of dead insects/the number of tested insects)×100
(§3) To show the degree of a synergistic effect, the “effectiveness expectation” was calculated based on the Colby method. When the effectiveness is higher than the “effectiveness expectation”, it is determined that there is a synergistic effect.
(§4) Expectation of insecticidal rate (%) (E)=X+Y−XY/100
(§5) X: measurement of insecticidal rate in B single application plot (%)
(§6) Y: measurement of insecticidal rate in A single application plot (%)

Phyllotreta striolata = test: Test for confirming effect on Phyllotreta striolata (bok choy seedling sprinkling, insecticidal rate)
Protocol: Test for Confirming Effect on Phyllotreta striolata
A flowable agent containing the compound A was diluted with water containing RABIDEN 3S diluted 5000 times to prepare chemical solutions A containing the compound A at twice concentrations described in Table 5.
A preparation containing the compound B or a flowable agent containing the compound B was diluted with water containing RABIDEN 3S diluted 5000 times to prepare chemical solutions B containing the compound B at twice concentrations described in Table 5.
A mixed solution obtained by mixing the chemical solution A and the chemical solution B in an equivalent amount was sprinkled on bok choy seedlings (at the seventh true leaf stage) planted in 9-cm pots. After air dry, these bok choy seedlings were placed in plastic cups, and ten Phyllotreta striolata imagoes were released (AB mixture application plot).
as §1
The chemical solution A′ was sprinkled on bok choy seedlings (at the seventh true leaf stage) planted in 9-cm pots. After air dry, these bok choy seedlings were placed in plastic cups, and ten Phyllotreta striolata imagoes were released (A single application plot). The chemical solution B′ was sprinkled on bok choy seedlings (at the seventh true leaf stage) planted in 9-cm pots. After air dry, these bok choy seedlings were placed in plastic cups, and ten Phyllotreta striolata imagoes were released (B single application plot).
Then, the bok choy seedlings sprinkled with the chemical solutions were placed in a thermostatic chamber at a temperature of 25° C. and a humidity of 60%, viability determination was performed 6 days after the insect release, and the insecticidal rate was calculated by the following equation. The test was repeated twice.
Insecticidal rate (%)=(the number of the dead insects/the number of tested insects)×100
as §3, §4, §5, §6

Aphis gossypii = test: Test for confirming effect on Aphis gossypii (cucumber sprinkling, insecticidal rate)
Protocol: Test for confirming effect on Aphis gossypii A flowable agent containing the compound A was diluted with water containing RABIDEN 3S diluted 5000 times to prepare chemical solutions A containing the compound A at twice concentrations described in Table 4.
A preparation containing the compound B or a flowable agent containing the compound B was diluted with water containing RABIDEN 3S diluted 5000 times to prepare chemical solutions B containing the compound B at twice concentrations described in Table 4.
First, 9-cm pots were sown with cucumbers. Aphis gossypii female imagoes were released on the cucumbers 10 days after the sprouting. The borne first-instar larvae were left, and the female imagoes were removed on the next day. A mixed solution obtained by mixing the chemical solution A and the chemical solution B in an equivalent amount was sprinkled on the cucumbers (AB mixture application plot).
as §1
The chemical solution A′ was sprinkled on the cucumbers sown with the first-instar larvae by the same method as in the AB mixture application plot (A single application plot). The chemical solution B′ was sprinkled on the cucumbers sown with the first-instar larvae by the same method as in the AB mixture application plot (B single application plot).
Then, the cucumbers sprinkled with the chemical solutions were placed in a thermostatic chamber at a temperature of 25° C. and a humidity of 60%, the viability of the Aphis gossypii was inspected after 6 days, and the insecticidal rate was calculated by the following equation. The test was repeated twice.
as §2, §3, §4, §5, §6

[1] = Plutella xylostella, read-out: Effectiveness Measurement (insecticidal rate)
[2] = Aphis gossypii, 144 h, single chemical, 0.12 ppm, after 6 days, read-out: Effectiveness Measurement (insecticidal rate)
[3] = Aphis gossypii, 144 h, single chemical, 2 ppm, after 6 days, read-out: Effectiveness Measurement (insecticidal rate)
[4] = Phyllotreta striolata, 144 h, single application, 31 ppm, Phyllotreta striolata imagoes, 6 days after release, read-out: Effectiveness Measurement (insecticidal rate)
[5] = single chemical, 0.12 ppm, after 6 days
[6] = Phyllotreta striolata, 144 h, single application, Phyllotreta striolata imagoes, 6 days after release, read-out: Effectiveness Measurement (insecticidal rate)
[7] = Plutella xylostella, 0.5 ppm, read-out: Effectiveness Measurement (insecticidal rate)
[8] = Aphis gossypii, 144 h, single chemical, after 6 days, read-out: Effectiveness Measurement (insecticidal rate)

In the case of `N#Cc1ccc(CC(=NNC(=O)Nc2ccc(OC(F)(F)F)cc2)c2cccc(C(F)(F)F)c2)cc1` (mixture of isomers) [Metaflumizone, metaflumizone], the “Effectiveness Measurement (insecticidal rate)” value (“Effectiveness Measurement” for short) (Plutella xylostella; 0.5 ppm) is reported as 20% and the “Effectiveness Measurement” value (Phyllotreta striolata; single application, 31 ppm, Phyllotreta striolata imagoes, 6 days after release) is reported as 40%.

`Cc1c(COC(=O)[C@@H]2[C@H](/C=C(\Cl)C(F)(F)F)C2(C)C)cccc1-c1ccccc1` (racemic) [Bifenthrin] was tested, and the pest or weed control at 125 ppm (Plutella xylostella; Plutella xylostella, 125 ppm, read-out: Effectiveness Measurement (insecticidal rate)) was 40% and the pest or weed control at 0.03 ppm (Aphis gossypii; Aphis gossypii, 144 h, single chemical, 0.03 ppm, after 6 days, read-out: Effectiveness Measurement (insecticidal rate)) was 42%.

For `COP(=O)(NC(C)=O)SC` (stereo not shown) [Acephate, acephate], the pest or weed control at 31 ppm (Aphis gossypii; Aphis gossypii, 144 h, read-out: Effectiveness Measurement (insecticidal rate)) was 50% and the pest or weed control at 8 ppm (Phyllotreta striolata; Phyllotreta striolata, 144 h, read-out: Effectiveness Measurement (insecticidal rate)) was 40%.

With `C/C(=N\C#N)N(C)Cc1ccc(Cl)nc1` [Acetamiprid, acetamiprid] the pest or weed control at 8 ppm (Plutella xylostella; [1]) was 10%, the pest or weed control at 0.12 ppm (Aphis gossypii; [2]) was 40% and the pest or weed control at 8 ppm (Phyllotreta striolata; Phyllotreta striolata, 144 h, single application, 8 ppm, Phyllotreta striolata imagoes, 6 days after release, read-out: Effectiveness Measurement (insecticidal rate)) was 20%.

Molecule `CC(C)N1C(=O)N(c2ccccc2)CS/C1=N\C(C)(C)C` [Buprofezin] has a pest or weed control at 31 ppm (Aphis gossypii; Aphis gossypii, 144 h, single chemical, 31 ppm, after 6 days, read-out: Effectiveness Measurement (insecticidal rate)) of 33%.

`CNC(=O)Oc1cccc2c1OC(C)(C)C2` [Carbofuran, carbofuran] was tested, and the pest or weed control at 2 ppm (Plutella xylostella; [1]) was 10%, the pest or weed control at 2 ppm (Aphis gossypii; [3]) was 14% and the pest or weed control at 31 ppm (Phyllotreta striolata; [4]) was 20%.

For `CN(C)C(CSC(N)=O)CSC(N)=O` [Cartap hydrochloride, cartap hydrochloride], the pest or weed control at 2 ppm (Plutella xylostella; [1]) was 40% and the pest or weed control at 31 ppm (Phyllotreta striolata; [4]) was 60%.

Work on `CCOCn1c(-c2ccc(Cl)cc2)c(C#N)c(Br)c1C(F)(F)F` [Chlorfenapyr, chlorfenapyr] yielded a pest or weed control at 2 ppm (Plutella xylostella; [1]) of 20%, a pest or weed control at 2 ppm (Aphis gossypii; [3]) of 6% and a pest or weed control at 2 ppm (Phyllotreta striolata; Phyllotreta striolata, 144 h, single application, 2 ppm, Phyllotreta striolata imagoes, 6 days after release, read-out: Effectiveness Measurement (insecticidal rate)) of 40%.

`CCS(=O)(=O)c1cc(C2CC2)cnc1-c1ncc(C=C(Cl)C(F)(F)F)n1C` [Compound (II)] was tested, and the pest or weed control at 0.12 ppm (Plutella xylostella; Plutella xylostella, 0.12 ppm, read-out: Effectiveness Measurement (insecticidal rate)) was 10%, the “Effectiveness Measurement” value (Plutella xylostella; 0.12 ppm) was 10% and the pest or weed control at 0.12 ppm (Aphis gossypii; [2]) was 18%. The “Effectiveness Measurement” value (Aphis gossypii; [5]) was 18% and the pest or weed control at 0.5 ppm (Phyllotreta striolata; [6]) was 20%.

Molecule `CCS(=O)(=O)c1cc(C2CC2)cnc1-c1ncc(C(F)C(F)(C(F)(F)F)C(F)(F)F)n1C` (stereo not shown) [Compound (III)] has a pest or weed control at 0.5 ppm (Plutella xylostella; [7]) of 40%, a pest or weed control at 0.5 ppm (Aphis gossypii; [8]) of 31% and a pest or weed control at 0.5 ppm (Phyllotreta striolata; [6]) of 20%.

`CCS(=O)(=O)c1cc(C(F)(F)F)cnc1-c1ncc(/C=C(\Cl)C(F)(F)C(F)(F)F)n1C` [Compound (IV)] was tested, and the pest or weed control at 0.03 ppm (Plutella xylostella; Plutella xylostella, 0.03 ppm, read-out: Effectiveness Measurement (insecticidal rate)) was 20%, the pest or weed control at 0.5 ppm (Aphis gossypii; [8]) was 64% and the pest or weed control at 0.5 ppm (Phyllotreta striolata; [6]) was 10%.

Molecule `CNC(=O)c1cc(C#N)cc(C)c1NC(=O)c1cc(Br)nn1-c1ncccc1Cl` [Cyantraniliprole, cyantraniliprole] has a pest or weed control at 8 ppm (Plutella xylostella; [1]) of 10%, a pest or weed control at 0.12 ppm (Aphis gossypii; [2]) of 50% and a pest or weed control at 0.5 ppm (Phyllotreta striolata; [6]) of 20%.

Molecule `N#Cc1nn(-c2c(Cl)cc(C(F)(F)F)cc2Cl)c(N)c1[S+]([O-])C(F)(F)F` (stereo not shown) [Fipronil, fipronil] has a pest or weed control at 0.5 ppm (Plutella xylostella; [7]) of 40%, a pest or weed control at 0.5 ppm (Aphis gossypii; [8]) of 29% and a pest or weed control at 0.12 ppm (Phyllotreta striolata; Phyllotreta striolata, 144 h, single application, 0.12 ppm, Phyllotreta striolata imagoes, 6 days after release, read-out: Effectiveness Measurement (insecticidal rate)) of 20%.

`N#CCNC(=O)c1cnccc1C(F)(F)F` [Flonicamid] was tested, and the “Effectiveness Measurement” value (Aphis gossypii; [5]) was 21%.

In the case of `CON=CNC(=O)c1ccc(C2=NOC(c3cc(Cl)cc(Cl)c3)(C(F)(F)F)C2)cc1C` (stereo not shown) [Fluxametamide, fluxametamide], the “Effectiveness Measurement” value (Plutella xylostella; 0.12 ppm) is reported as 40%, the “Effectiveness Measurement” value (Aphis gossypii; single chemical, 2 ppm, after 6 days) is reported as 60% and the “Effectiveness Measurement” value (Phyllotreta striolata; single application, 2 ppm, Phyllotreta striolata imagoes, 6 days after release) is reported as 20%.

Molecule `CC1=NNC(=O)N(/N=C/c2cccnc2)C1` [Pymetrozine] has a pest or weed control at 0.12 ppm (Aphis gossypii; [2]) of 68%.

Work on `CCc1ccc(C(=O)NN(C(=O)c2cc(C)cc(C)c2)C(C)(C)C)cc1` [Tebufenozide] yielded a pest or weed control at 31 ppm (Plutella xylostella; Plutella xylostella, 31 ppm, read-out: Effectiveness Measurement (insecticidal rate)) of 40%.

For `O=C(NC(=O)c1c(F)cccc1F)Nc1cc(Cl)c(F)c(Cl)c1F` [Teflubenzuron], the pest or weed control at 0.5 ppm (Plutella xylostella; [7]) was 40%.

In the case of `CCc1nn(C)c(C(=O)NCc2ccc(Oc3ccc(C)cc3)cc2)c1Cl` [Tolfenpyrad], the pest or weed control at 8 ppm (Plutella xylostella; [1]) is reported as 20% and the pest or weed control at 0.12 ppm (Aphis gossypii; [2]) is reported as 18%.

In the case of Abamectin, the “Effectiveness Measurement” value (Plutella xylostella; 0.5 ppm) is reported as 40%.

For Spinetoram, the “Effectiveness Measurement” value (Plutella xylostella; 0.0076 ppm) was 40%.
